The values that follow come from patent publication US5747301A, “D-sorbitol dehydrogenase” (Roche Vitamins Inc., priority 1995, dated 1998).

Structures can show the parent of a compound that is named as a salt. Where two headings read alike, the source gives them in different places.

One may read the Km as the concentration of substrate that gives half-maximal velocity.

Series [1] addresses T1, D-sorbitol dehydrogenase (SLDH) (Gluconobacter thailandicus, UniProt Q8KIL1).
T1 sequence (Q8KIL1 30-740): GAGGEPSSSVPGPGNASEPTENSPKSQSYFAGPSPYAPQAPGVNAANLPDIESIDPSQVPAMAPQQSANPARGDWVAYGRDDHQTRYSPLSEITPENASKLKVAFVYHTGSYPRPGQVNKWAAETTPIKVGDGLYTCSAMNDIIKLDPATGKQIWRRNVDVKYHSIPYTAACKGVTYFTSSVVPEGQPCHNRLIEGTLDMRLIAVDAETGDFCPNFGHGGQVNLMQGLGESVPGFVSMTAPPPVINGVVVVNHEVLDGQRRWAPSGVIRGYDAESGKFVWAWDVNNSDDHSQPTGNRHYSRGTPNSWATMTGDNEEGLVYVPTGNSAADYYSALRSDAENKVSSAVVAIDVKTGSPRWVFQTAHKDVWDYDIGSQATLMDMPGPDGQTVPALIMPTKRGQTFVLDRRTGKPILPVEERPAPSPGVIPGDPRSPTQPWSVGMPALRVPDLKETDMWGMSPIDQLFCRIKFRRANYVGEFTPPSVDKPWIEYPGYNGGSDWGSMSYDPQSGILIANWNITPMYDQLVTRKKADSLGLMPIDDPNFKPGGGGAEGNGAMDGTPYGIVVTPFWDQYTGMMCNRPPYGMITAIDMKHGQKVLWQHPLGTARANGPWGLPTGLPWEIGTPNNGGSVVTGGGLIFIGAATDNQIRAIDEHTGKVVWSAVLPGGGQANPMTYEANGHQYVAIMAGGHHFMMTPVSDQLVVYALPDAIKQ
The experiment in a line: Effects of metal ions and inhibitors on the SLDH activity. It counts as biochemical, Gluconobacter suboxydans IFO 3255. Further details: The SLDH was isolated from the membrane fraction of Gluconobacter suboxydans IFO 3255 (DSM 9715); made in house; host or cells: Gluconobacter suboxydans IFO 3255 (DSM 9715), native source (not recombinant): purified from the solubilized membrane fraction. Particulars: for activity at 960 µM / activity at 1890 µM: read-out: Relative activity (%); for effect on SLDH activity: addition of 0.91 mM.

Series [2] has as its target T1, D-sorbitol dehydrogenase (SLDH). The experiment in a line: Substrate specificity of the purified D-sorbitol dehydrogenase (DCIP reduction enzyme assay). Format: biochemical, Gluconobacter suboxydans IFO 3255. Further details: The SLDH was isolated from the membrane fraction of Gluconobacter suboxydans IFO 3255 (DSM 9715); made in house; host or cells: Gluconobacter suboxydans IFO 3255 (DSM 9715), native source (not recombinant): purified from the solubilized membrane fraction. The note with it: for activity at 100000 µM: read-out: Relative activity.

For series [3], the system named is membrane-bound D-sorbitol dehydrogenase. The note with it: Shinagawa et al. enzyme; cited from earlier work.
For series [4], the target named is T1, D-sorbitol dehydrogenase (SLDH). The note with it: conversion of D-sorbitol to L-sorbose.
Substrate in series [5]: OC[C@@H](O)[C@@H](O)[C@H](O)[C@@H](O)CO
The experiment in a line: Effects of substrate concentration on reaction rate (Km). Format: biochemical, Gluconobacter suboxydans IFO 3255. The note with it: other: D-sorbitol 0.5 to 80 mM; DCIP as electron acceptor. The procedure: The velocity of the oxidizing reaction on varying the concentration of D-sorbitol from 0.5 to 80 mM was measured to determine the Km value for D-sorbitol. The apparent Michaelis constant was calculated to be 18 mM with DCIP as an electron acceptor for the reaction.

The mark [6] stands for this setting: inhibitor 0.96 mM, percentage of the reaction rate without inhibitors.
Setting [7] is: inhibitor 1.89 mM, percentage of the reaction rate without inhibitors.
The mark [8] stands for this setting: metal 0.91 mM, percentage of the reaction rate without metal compounds.
[9] abbreviates: metal 1.79 mM, percentage of the reaction rate without metal compounds.
Where [10] appears, read: substrate solutions 100 mM, percent of the reaction rate obtained with D-sorbitol.

On to `C=C[C@H]1CN2CC[C@H]1C[C@H]2[C@H](O)c1ccnc2ccc(OC)cc12` [Quinine-HCl, quinine hydrochloride], for which, in series [1] (setting [6]), the activity at 960 µM is 79.2%. Further, the activity at 1890 µM in series [1] (setting [7]) is 75%. The “inhibitory by” value in series [1] (inhibitors (Table 7)) was determined as 25%.
In the case of `O.O.O.O.O.O.O=S(=O)([O-])[O-].[Ni+2]` [NiSO4.6H2 O], the “Relative activity (%)” value in series [1] (setting [8]) is listed as 88%; in series [1] (setting [9]), 108%.
In the case of `OC[C@H]1O[C@@](CO)(O[C@H]2O[C@H](CO)[C@@H](O)[C@H](O)[C@H]2O)[C@@H](O)[C@@H]1O` [Sucrose], the activity at 100000 µM in series [2] (setting [10]) was 0%.
`[Cl-].[Cl-].[Zn+2]` [ZnCl2]: the “Relative activity (%)” value in series [1] (setting [8]) is recorded as 56%; in series [1] (setting [9]) it was 32%.
Take `OC[C@@H](O)[C@H](O)[C@@H](O)CO` [D-Xylitol]: in series [2] (setting [10]), the activity at 100000 µM was 0%.
Still for that read-out and setting: the result for `OC[C@@H](O)[C@@H](O)[C@@H](O)CO` [D-Adonitol] reads 66.6%.
With `OC[C@@H](O)[C@@H](O)CO` [meso-Erythritol], the “oxidation by the enzyme” value in series [3] was “did not oxidize”. For the same molecule, in series [2] (substrate solutions 100 mM), the “oxidation by SLDH” value is listed as “highly oxidized”. The activity at 100000 µM in series [2] (setting [10]) is 172%.
As for `[Cu+2]` [Cu^2+], the “effect on SLDH activity” value in series [1] was “strongly inhibitory”.
Take `[Fe+3]` [Fe^3+]: the “effect on SLDH activity” value in series [1] is on record as “strongly inhibitory”.
`O=O` [oxygen]: the “use as electron acceptor” value in series [4] was “does not utilize oxygen as an electron acceptor”.
In the case of `OCC(O)CO` [Glycerol], in series [2] (substrate solutions 100 mM), the “oxidation by SLDH” value was “highly oxidized”. The activity at 100000 µM in series [2] (setting [10]) is 117%.
As to `O=C(O)CI` [Monoiodoacetate], in series [1], the “inhibitory by” value is 75%, the activity at 960 µM was determined as 75% and the activity at 1890 µM is 25%.
As for `O=C(O)CF` [Sodium fluoroacetate], in series [1], the activity at 960 µM was 104% and the activity at 1890 µM was 108%.
As to `O.O.O.O=[N+]([O-])[O-].O=[N+]([O-])[O-].[Cu+2]` [Cu(NO3)2.3H2 O], the “Relative activity (%)” value in series [1] (setting [8]) and in series [1] (setting [9]) was 0% each time.
With `[Cl][Ti]([Cl])([Cl])[Cl]` [TiCl4], the “Relative activity (%)” value in series [1] (setting [8]) came out at 96%; in series [1] (setting [9]), 88%.
For MnSO4.4~6H2 O, the “Relative activity (%)” value in series [1] (setting [8]) and in series [1] (setting [9]) was 88% in each case.
For `OC[C@H]1OC(O)[C@H](O)[C@@H](O)[C@@H]1O` (stereo partly drawn) [D-Glucose], in series [2], the activity at 100000 µM was 0%.
`O.O.O.O.O=[N+]([O-])[O-].O=[N+]([O-])[O-].[Ca+2]` [Ca(NO3)2.4H2 O]: the “Relative activity (%)” value in series [1] (setting [8]) and in series [1] (setting [9]) was 96% each time.
For the molecule `O.O.O.O.O.O.[Cl-].[Cl-].[Co+2]` [CoCl2.6H2 O], the “Relative activity (%)” value in series [1] (setting [8]) is on record as 117%; in series [1] (setting [9]) it was 108%.
As to `OC[C@@H](O)C(O)[C@H](O)CO` [D-Arabitol], in series [3], the “oxidation by the enzyme” value is reported as “did not oxidize”. Also, the “oxidation by SLDH” value in series [2] (substrate solutions 100 mM) is “highly oxidized”. Also, the activity at 100000 µM in series [2] (setting [10]) was 175%.
With `[N-]=[N+]=[N-].[Na+]` [NaN3], the “Relative activity (%)” value was found to be 91.7% in series [1] (setting [6]) and 112.5% in series [1] (setting [7]).
On to `OC[C@@H](O)[C@@H](O)[C@H](O)[C@H](O)CO` [D-Mannitol], for which the “reaction rate relative to D-sorbitol” value in series [3] is 5%. In series [2], the activity at 100000 µM was 49.9%.
On to `CCO` [Ethanol], for which the activity at 100000 µM in series [2] worked out at 0%.
Consider `O.O.O.O.O.O.[Cl-].[Cl-].[Mg+2]` [MgCl2.6H2 O], for which the “Relative activity (%)” value in series [1] (setting [8]) was found to be 88%; in series [1] (setting [9]), 92%.
Turning to `O=C(O)CN(CCN(CC(=O)O)CC(=O)O)CC(=O)O` [EDTA], in series [1], the activity at 960 µM amounted to 96.7% and the activity at 1890 µM came out at 100%.
Turning to `CO` [Methanol], in series [2], the activity at 100000 µM was 0%.
Turning to `O.O.O.O.[Cl][Mn][Cl]` [MnCl2.4H2 O], the “Relative activity (%)” value in series [1] (setting [8]) amounted to 80%; in series [1] (setting [9]) it was 88%.
Turning to `[F-].[Na+]` [Sodium fluoride], the “Relative activity (%)” value in series [1] (setting [6]) and in series [1] (setting [7]) was 100% throughout.
As to `O=S(=O)([O-])[O-].[Cu+2]` [CuSO4], the “Relative activity (%)” value in series [1] (setting [8]) and in series [1] (setting [9]) was 0% in each case.
As for `O.O.[Cl][Cu][Cl]` [CuCl2.2H2 O], the “Relative activity (%)” value in series [1] (setting [8]) and in series [1] (setting [9]) was 0% in each case.
Take `O.O.O.O.O.O.O.O=[As]([O-])([O-])O.[Na+].[Na+]` [Na2 HAsO4.7H2 O]: the “Relative activity (%)” value in series [1] (setting [6]) stood at 116.7%; in series [1] (setting [7]), 120.0%.
Turning to `O=C(CO)[C@@H](O)[C@H](O)[C@@H](O)CO` [L-Sorbose], the activity at 100000 µM in series [2] (setting [10]) came to 0%.
As for `O.O.[Na+].[Na+].[O]=[Mo](=[O])([O-])[O-]` [Na2 MoO4.2H2 O], the “Relative activity (%)” value in series [1] (setting [8]) was determined as 68%; in series [1] (setting [9]) it was 96%.
As to `O=C(CO)[C@@H](O)[C@H](O)[C@H](O)CO` [D-Fructose], the activity at 100000 µM in series [2] (setting [10]) came out at 0%.
On to `[Ca+2].[Cl-].[Cl-]` [CaCl2], for which the “Relative activity (%)” value in series [1] (setting [8]) and in series [1] (setting [9]) was 96% in each case.
For `O=S(=O)([O-])[O-].O=S(=O)([O-])[O-].O=S(=O)([O-])[O-].[Fe+3].[Fe+3]` [Fe2 (SO4)3.xH2 O], the “Relative activity (%)” value in series [1] (setting [8]) and in series [1] (setting [9]) was 0% in each case.
For `OC[C@@H](O)[C@@H](O)[C@H](O)[C@@H](O)CO` [D-Sorbitol], the activity at 100000 µM in series [2] was found to be 100%. In series [2] (substrate solutions 100 mM), the “oxidation by SLDH” value is recorded as “highly oxidized”.
Take `CCN1C(=O)C=CC1=O` [N-Ethylmaleimide]: in series [1] (setting [6]), the activity at 960 µM stood at 117%. The activity at 1890 µM in series [1] worked out at 100%.
As for `O.O.O.O.O.O.O.O=S(=O)([O-])[O-].[Zn+2]` [ZnSO4.7H2 O], the “Relative activity (%)” value in series [1] (setting [8]) turned out to be 44%; in series [1] (setting [9]), 40%.

B1: D-sorbitol dehydrogenase (SLDH) (Gluconobacter thailandicus) (protein)
chain: GAGGEPSSSVPGPGNASEPTENSPKSQSYFAGPSPYAPQAPGVNAANLPDIESIDPSQVPAMAPQQSANPARGDWVAYGRDDHQTRYSPLSEITPENASKLKVAFVYHTGSYPRPGQVNKWAAETTPIKVGDGLYTCSAMNDIIKLDPATGKQIWRRNVDVKYHSIPYTAACKGVTYFTSSVVPEGQPCHNRLIEGTLDMRLIAVDAETGDFCPNFGHGGQVNLMQGLGESVPGFVSMTAPPPVINGVVVVNHEVLDGQRRWAPSGVIRGYDAESGKFVWAWDVNNSDDHSQPTGNRHYSRGTPNSWATMTGDNEEGLVYVPTGNSAADYYSALRSDAENKVSSAVVAIDVKTGSPRWVFQTAHKDVWDYDIGSQATLMDMPGPDGQTVPALIMPTKRGQTFVLDRRTGKPILPVEERPAPSPGVIPGDPRSPTQPWSVGMPALRVPDLKETDMWGMSPIDQLFCRIKFRRANYVGEFTPPSVDKPWIEYPGYNGGSDWGSMSYDPQSGILIANWNITPMYDQLVTRKKADSLGLMPIDDPNFKPGGGGAEGNGAMDGTPYGIVVTPFWDQYTGMMCNRPPYGMITAIDMKHGQKVLWQHPLGTARANGPWGLPTGLPWEIGTPNNGGSVVTGGGLIFIGAATDNQIRAIDEHTGKVVWSAVLPGGGQANPMTYEANGHQYVAIMAGGHHFMMTPVSDQLVVYALPDAIKQ
notes: The SLDH was isolated from the membrane fraction of Gluconobacter suboxydans IFO 3255 (DSM 9715); made in house; host or cells: Gluconobacter suboxydans IFO 3255 (DSM 9715), native source (not recombinant): purified from the solubilized membrane fraction
In the case of B1, the Km in series [5] was determined as 18 mM.
